According to US11584709B2, “Multitarget drug for treating diseases in mammals” (“PHARMENTERPRISES EURASIA” LIMITED LIABILITY COMPANY, priority 2017, dated 2023):

Assays:
[1] = test system: motility of the gastrointestinal tract; experiment: Model of irritable bowel syndrome: motility of the gastrointestinal tract (activated carbon); type: in vivo, nonlinear male mice
Experimental: The effect on the motility of the gastrointestinal tract was studied on a model of irritable bowel syndrome in nonlinear male mice weighing 24-30 g. The animals were intragastrically injected with a solution of activated carbon (50 mg/ml, in a volume of 10 ml/kg) and the speed (in minutes) of the movement of activated coal through the intestines of animals. The compounds under study were intragastrically administered once 1 hour before the introduction of activated carbon. Drotaverine (6.7 mg/kg), Buscopan (3 mg/kg) and Trimedat (33 mg/kg) were used as reference drugs.

[2] = test system: imiquimod-induced psoriasis on the back; experiment: Mouse model of imiquimod-induced psoriasis on the back; type: in vivo
Experimental: Psoriasis was simulated in female balb/c mice by applying Aldar cream (5% imiquimod) on a previously shaved skin back area of 3×4 cm daily 1 time per day for 15 days (J Immunol. 2009 May 1; 182(9):5836-45). Intact animals were applied with vaseline: 120 mg per the shaved back area.
The assessment of the development of pathology was performed on the 10th, 12th, 13th and 15th day before the next application of Aldar cream according to the index: the thickness of the skin fold on the back. The thickness of the skin fold on the back was measured with a Digimatic MK-25 micrometer (Mitutoyo, Japan).

[3] = test system: imiquimod-induced ear psoriasis; experiment: Mouse model of imiquimod-induced ear psoriasis; type: in vivo, female balb/c mice; conditions: 0.05%, M ± m, n = 10
Experimental: Psoriasis was simulated in female balb/c mice by applying Aldar cream (5% imiquimod) on the inner side of the right ear daily 1 time per day for 10 days (J Immunol. 2009 May 1; 182(9):5836-45). Vaseline was applied to intact animals: 20 mg on the right ear.
The assessment of the development of pathology was performed on 2nd, 4th, 6th, 8th and 10th day before the next application of Aldar cream by measuring the thickness of the left and right ears.

[4] = test system: diarrhea induced by castor oil; experiment: Mouse model of diarrhea induced by castor oil; type: in vivo, Balb/c mice; conditions: 1 mg/kg; M ± m, n = 10; observation 4 hours
Experimental: Balb/c mice, which starved for 24 hours, were given castor oil intragastrically. Then the animals were encaged into individual cages with a bottom covered with white paper, and time before the onset of diarrhea was noted. The observation time is 4 hours (J Pharm Pharmacol. 2015 February; 67(2):244-54).

indomethacin colitis = experiment: Model of colitis induced by indomethacin; type: in vivo, male Wistar rats; conditions: day 4
Experimental: The study was performed on male Wistar rats, which were subcutaneously injected with an indomethacin solution in a dose of 9 mg/kg for two days running to induce colitis. The injection solution was prepared as follows: first, indomethacin was dissolved in 100% ethanol, then it was diluted in 5% NaHCO3 solution. On the 4th day after euthanasia, the stomach and intestine were removed from the animals in the CO2 chamber, then the caecum was excised, 10 cm from the ileum and large intestine was cut off, and 5 cm—from the caecum, to assess gross lesions (J Ethnopharmacol. 2004 February; 90(2-3): 195-204).

model of Crohn's disease = experiment: Mouse model of Crohn's disease (TNBS); type: in vivo, male balb/c mice; conditions: for The portion of dead animals: TNBS, 7 days, 10 animals
Experimental: The study was performed on male balb/c mice. Animals, which starved for 24 hours, were injected with 150 μl/mouse of TNBS solution in 50% ethanol into the rectal hole of the mouse to the depth of 4 cm using a 3.5 F catheter. Next, the mice were turned upside down and held for 60 seconds. 150 μl of the 50% ethanol solution was injected into the healthy control (intact animals). The study lasted 7 days. The development of pathology was assessed by the death of animals.

[5] = inducer alone (control group), 9 mg/kg subcutaneously two days running

## CCCC[N+]1(C)[C@@H]2C[C@@H](OC(=O)[C@H](CO)c3ccccc3)C[C@H]1[C@@H]1O[C@@H]12 (some centres unmarked) [Buscopan, reference compound]
[1]; 3 mg/kg once intragastrically 1 hour before activated carbon
  The evacuation speed of activated carbon: 73.2 ± 2.87 min

## CCC(=O)O[C@]1(C(=O)CCl)[C@@H](C)C[C@H]2[C@@H]3CCC4=CC(=O)C=C[C@]4(C)[C@@]3(F)[C@@H](O)C[C@@]21C [Dermovate, clobetasol, reference compound]
[2]; 0.05%, day 10, M ± m, n = 10
  The gain of the thickness of the back skin to the thickness before the start of the study: −26.8%
[2]; on the 12th day of the study, thinning the skin
  toxic effect: total death of animals
[3]; day 2
  The gain in the thickness of the right (affected) ear relatively day 0: 18.9%
[3]; day 4
  The gain in the thickness of the right (affected) ear relatively day 0: 22.6%
[3]; day 6
  The gain in the thickness of the right (affected) ear relatively day 0: 24.6%
[3]; day 8
  The gain in the thickness of the right (affected) ear relatively day 0: 21.3%
[3]; day 10
  The gain in the thickness of the right (affected) ear relatively day 0: 16.5%

## CCOc1ccc(/C=C2\NCCc3cc(OCC)c(OCC)cc32)cc1OCC [Drotaverine, reference compound]
[1]; 6.7 mg/kg once intragastrically 1 hour before activated carbon
  The evacuation speed of activated carbon: 105.85 ± 2.39 min
[4]
  The time of onset of diarrhea: 43.60 ± 2.61& min

## COc1ccc2c(c1)c(CC(=O)O)c(C)n2C(=O)c1ccc(Cl)cc1 [Indomethacin]
Indomethacin colitis; [5]
  Macroscopic assessment of the lesion, Caecum: 1.2 ± 0.4 points
  Macroscopic assessment of the lesion, Ileum: 5.6 ± 1.2 points
  Macroscopic assessment of the lesion, Large intestine: 1.2 ± 0.3 points
  Macroscopic assessment of the lesion, Overall assessment: 8.0 ± 1.3 points

## CN(C)C(=O)C(CCN1CCC(O)(c2ccc(Cl)cc2)CC1)(c1ccccc1)c1ccccc1 [Loperamide, reference compound]
[4]
  The time of onset of diarrhea: 56.40 ± 5.14& min

## C[C@]12C=CC(=O)C=C1CC[C@@H]1[C@@H]2[C@@H](O)C[C@@]2(C)[C@H]1CC[C@]2(O)C(=O)CO [Prednisolone]
Model of Crohn's disease; 5 mg/kg, 1 time per day
  The portion of dead animals: 80%
Model of Crohn's disease; 10 mg/kg
  The portion of dead animals: 60%
Model of Crohn's disease; summary of Table 4
  reduction of the mortality: 20-40%
Indomethacin colitis; 2 mg/kg, M ± m, n = 10
  Macroscopic assessment of the lesion, Caecum: 0.3 ± 0.2& points
  Macroscopic assessment of the lesion, Ileum: 0.6 ± 0.6& points
  Macroscopic assessment of the lesion, Large intestine: 0.4 ± 0.2 points
  Macroscopic assessment of the lesion, Overall assessment: 1.3 ± 0.9& points

## CCC(COC(=O)c1cc(OC)c(OC)c(OC)c1)(c1ccccc1)N(C)C.O=C(O)/C=C\C(=O)O (centres unmarked) [Trimedat, reference compound]
[1]; 33 mg/kg once intragastrically 1 hour before activated carbon
  The evacuation speed of activated carbon: 83.65 ± 2.42 min
